From patent US9051387B2, “Inhibition of MyBP-C binding to myosin as a treatment for heart failure” (Wisconsin Alumni Research Foundation, priority 2012, dated 2015)
“Also recorded” adds a separate entry of the source.

Assays:
[1] = system: murine skinned myocardium; test: Kinetics of force development (rate constant of force redevelopment, ktr); type: cell-based, mouse; conditions: 50 μM peptide, each pCa studied
Procedure: (§1) Skinned ventricular myocardium was prepared according to the protocol described by Chen et al. (2010). In brief, beating hearts were excised in vivo from anesthetized WT mice of either sex (˜6 months old) and dissected in Ca^2+-Ringer's solution containing 120 mM NaCl, 19 mM NaHCO3, 5 mM KCl, 1.2 mM Na2HPO4, 1.2 mM MgSO4, 1 mM CaCl2, and 10 mM glucose, pH 7.4 at 22° C., pre-equilibrated with 95% O2/5% CO2. Basal levels of RLC phosphorylation were reduced to uniformly low levels (i.e., <10%) as described previously (Olsson et al., 2004; Stelzer et al., 2006) by perfusing hemisected hearts with Ca^2+-Ringer's solution containing 30 mM 2,3-butanedione monoxime (BDM) for 30 minutes at 22° C. before rapid freezing in liquid nitrogen for storage prior to experimental measurements. The dephosphorylation of RLC provides an appropriate background for assessment of the effects of the peptide, since RLC phosphorylation increases force production in heart muscle and speeds contraction and RLC phosphorylation is nearly nil in heart failure. […]
The kinetics of force development were assessed as a function of pCa by measuring the rate of force redevelopment at each pCa following a rapid slackening and re-stretch of the muscle during steady Ca^2+ activation (Olsson et al., 2004; Stelzer et al., 2006). […]

[2] = system: mouse skinned myocardium; test: Relative effects of peptides on force at submaximal pCa (scaled to force at pCa 4.5); type: cell-based; conditions: FIG. 7, mouse, 50 μM, intermediate pCa; untreated force ~35% of maximum
Procedure: as §1, with “measurements.” for “measurements. The dephosphorylation of RLC provides an appropriate background for assessment of the effects of the peptide, since RLC phosphorylation increases force production in heart muscle and speeds contraction and RLC phosphorylation is nearly nil in heart failure.”
(§2) The force generating properties of murine or porcine skinned myocardium were measured as a function of free [Ca^2+] in activating solutions containing salts, a Ca^2+ buffer, and MgATP (Olsson et al., 2004). Free Ca^2+, expressed as −log [Ca^2+]free, was varied between sub-threshold (pCa 7.0) and saturating (pCa 4.5) levels with respect to force development. Measurements of isometric force as a function of pCa yielded force-pCa relationships, from which was determined the Ca^2+ sensitivity of force defined as the pCa at which force was half-maximal. […]

[3] = system: porcine skinned myocardium; test: Force-pCa relationship (Ca2+ sensitivity of force) in skinned myocardium; type: cell-based, pig
Procedure: Skinned myocardial preparations were attached between a force transducer (for measurements of force) and a displacement motor (to impose rapid changes in length for measurements of the kinetics of force development) while in relaxing solution (Olsson et al., 2004). The temperature was then adjusted to 22° C. for measurements of the contractile properties of myocardium in the presence and absence of peptide.
The force generating properties of murine or porcine skinned myocardium were measured as a function of free [Ca^2+] in activating solutions containing salts, a Ca^2+ buffer, and MgATP (Olsson et al., 2004). Free Ca^2+, expressed as −log [Ca^2+]free, was varied between sub-threshold (pCa 7.0) and saturating (pCa 4.5) levels with respect to force development. Measurements of isometric force as a function of pCa yielded force-pCa relationships, from which was determined the Ca^2+ sensitivity of force defined as the pCa at which force was half-maximal.
The force and kinetic data presented in the following section were obtained from each muscle preparation first during maximal activation at pCa 4.5, next during submaximal activation at a pCa>4.5, and once again during activation at pCa 4.5. The preparation was then bathed in relaxing solution containing peptide, after which the identical activation sequence was imposed. Finally, the peptide was washed out of the preparation by repeated washings in relaxing solution so that control measurements could again be done in the absence of peptide. This bracketing protocol ensured that the results in the presence of peptide were corrected for time-dependent rundown of the preparations during the experiment.
Measurements of Ca^2+ sensitivity of force were also performed using skinned myocardium from pig hearts, since these hearts are more similar to human hearts with respect to protein isoform expression than are mouse hearts. Specifically, the principal myosin isoform in porcine and human hearts is the much slower β-cardiac myosin, while the principal isoform in mouse hearts is the faster α-cardiac myosin. […] The slower β-cardiac isoform would be predicted to have a greater activating effect on the cardiac thin filament due to the longer residency time of the slower myosin on the thin filament.

[4] = system: mouse skinned myocardium; test: as above; type: cell-based
Procedure: Skinned ventricular myocardium was prepared according to the protocol described by Chen et al. (2010). In brief, beating hearts were excised in vivo from anesthetized WT mice of either sex (˜6 months old) and dissected in Ca^2+-Ringer's solution containing 120 mM NaCl, 19 mM NaHCO3, 5 mM KCl, 1.2 mM Na2HPO4, 1.2 mM MgSO4, 1 mM CaCl2, and 10 mM glucose, pH 7.4 at 22° C., pre-equilibrated with 95% O2/5% CO2. Basal levels of RLC phosphorylation were reduced to uniformly low levels (i.e., <10%) as described previously (Olsson et al., 2004; Stelzer et al., 2006) by perfusing hemisected hearts with Ca^2+-Ringer's solution containing 30 mM 2,3-butanedione monoxime (BDM) for 30 minutes at 22° C. before rapid freezing in liquid nitrogen for storage prior to experimental measurements. The dephosphorylation of RLC provides an appropriate background for assessment of the effects of the peptide, since RLC phosphorylation increases force production in heart muscle and speeds contraction and RLC phosphorylation is nearly nil in heart failure.
On the day of an experiment, frozen ventricles were thawed and homogenized in ice-cold relaxing solution containing 100 mM KCl, 10 mM imidazole, 5 mM MgCl2, 2 mM EGTA, and 4 mMATP, pH 7.0 at 22° C. to yield multicellular preparations with dimensions of 600-900 μm×100-250 μm using a Polytron homogenizer. The cellular homogenates were then centrifuged and subsequently resuspended in ice-cold relaxing solution containing 250 μg/ml saponin and 1% Triton X-100 for 30 minutes at 4° C. […]
as §2

FSSLLKKRDAFRRDAKLE (SEQ ID NO:47) [302A, 18-mer from cMyBP-C region 293-310 with S→A substitutions at positions 302 and 307]
effect on rate constant of force development (ktr) [1]: accelerated the rate of force development at each pCa studied; also recorded: increased at each pCa studied
force at pCa 5.9 (scaled to force at pCa 4.5), fold of control [2]: ~2 × control
increase in Ca2+ sensitivity of force ([3]; porcine myocardium, 50 μM peptide, versus control): 0.32 pCa units
pCa50 following treatment with peptide ([3]; porcine myocardium, 50 μM peptide, control 5.60): 5.92
effect of washout of the peptide ([3]; porcine myocardium, after 50 μM peptide): reversed the effect
effects on force development, porcine versus murine ([3]; skinned myocardium, FIG. 3): significantly greater in porcine than in murine skinned myocardium
increase in Ca2+ sensitivity of force ([4]; mouse myocardium, 50 μM peptide, versus control): 0.15 pCa units
pCa50 following treatment with peptide ([4]; mouse myocardium, 50 μM peptide, control 5.70±0.02): 5.85±0.02
effect on force-pCa relationship ([4]; mouse skinned myocardium, peptide 50 μM): shift of the force-pCa relationship to lower Ca^2+ concentrations; also recorded: shifted to lower Ca^2+ concentrations
